{
  "source": "PubChem BioAssay (NCI)",
  "assay_in_all_cases": "NCI tumour cell line growth inhibition, 48 h",
  "key": {"[1]": {"test_system": "SK-MEL-5 melanoma"}, "[2]": {"test_system": "HCT-15 colon"}, "[3]": {"test_system": "TK-10 renal"}, "[4]": {"test_system": "MDA-MB-435"}, "[5]": {"test_system": "SF-539 CNS"}, "[6]": {"test_system": "UO-31 renal"}, "[7]": {"test_system": "A498 renal"}, "[8]": {"test_system": "786-0 renal"}, "[9]": {"test_system": "M14 melanoma"}, "[10]": {"test_system": "SK-MEL-2 melanoma"}, "[11]": {"test_system": "UACC-257 melanoma"}, "[12]": {"test_system": "SR leukemia"}, "[13]": {"test_system": "T-47D breast"}, "[14]": {"test_system": "MDA-MB-231 breast"}, "[15]": {"test_system": "CCRF-CEM leukemia"}, "[16]": {"test_system": "UACC-62 melanoma"}, "[17]": {"test_system": "NCI-H522 lung"}, "[18]": {"test_system": "NCI/ADR-RES ovarian"}, "[19]": {"test_system": "KM12 colon"}, "[20]": {"test_system": "PC-3 prostate"}, "[21]": {"test_system": "HCT-116 colon"}, "[22]": {"test_system": "COLO 205 colon"}, "[23]": {"test_system": "HOP-92 NSCLC"}, "[24]": {"test_system": "SF-295 CNS"}, "[25]": {"test_system": "HS 578T breast"}, "[26]": {"test_system": "HT29 colon"}, "[27]": {"test_system": "U251 CNS"}, "[28]": {"test_system": "NCI-H226 lung"}, "[29]": {"test_system": "SN12C renal"}, "[30]": {"test_system": "NCI-H460 lung"}, "[31]": {"test_system": "OVCAR-8 ovarian"}, "[32]": {"test_system": "HCC-2998 colon"}, "[33]": {"test_system": "K-562 leukemia"}, "[34]": {"test_system": "SW-620 colon"}, "[35]": {"test_system": "NCI-H23 lung"}, "[36]": {"test_system": "OVCAR-3 ovarian"}, "[37]": {"test_system": "RPMI-8226 leukemia"}, "[38]": {"test_system": "ACHN renal"}, "[39]": {"test_system": "EKVX NSCLC"}, "[40]": {"test_system": "BT-549 breast"}, "[41]": {"test_system": "SNB-19 CNS"}, "[42]": {"test_system": "A549 NSCLC"}, "[43]": {"test_system": "MDA-N"}, "[44]": {"test_system": "CAKI-1 renal"}, "[45]": {"test_system": "IGROV1 ovarian"}, "[46]": {"test_system": "SK-OV-3 ovarian"}, "[47]": {"test_system": "HOP-62 NSCLC"}, "[48]": {"test_system": "OVCAR-5 ovarian"}, "[49]": {"test_system": "HL-60(TB) leukemia"}, "[50]": {"test_system": "SF-268 CNS"}, "[51]": {"test_system": "SK-MEL-28 melanoma"}, "[52]": {"test_system": "SNB-75 CNS"}, "[53]": {"test_system": "DU-145 prostate"}, "[54]": {"test_system": "RXF 393 renal"}, "[55]": {"test_system": "LOX IMVI melanoma"}, "[56]": {"test_system": "MCF7 breast"}},
  "note": "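All cell lines were grown in 96-well plates and treated with compound for 48 hours. TGI: concentration producing complete growth inhibition.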",
  "data": [
    {"molecule": "O=C(CCc1ccc(O)c(O)c1)NCCc1cc(OCc2ccccc2)cc(OCc2ccccc2)c1", "values": [
      {"measurement": "TGI", "setting": "[1]", "result": 28.7, "unit": "µM"},
      {"measurement": "TGI", "setting": "[2]", "result": 11, "unit": "µM"},
      {"measurement": "TGI", "setting": "[3]", "result": 41.5, "unit": "µM"},
      {"measurement": "TGI", "setting": "[4]", "result": 60.8, "unit": "µM"},
      {"measurement": "TGI", "setting": "[5]", "result": 30.1, "unit": "µM"},
      {"measurement": "TGI", "setting": "[6]", "result": 12.6, "unit": "µM"},
      {"measurement": "TGI", "setting": "[7]", "result": 37.7, "unit": "µM"},
      {"measurement": "TGI", "setting": "[8]", "result": 40, "unit": "µM"},
      {"measurement": "TGI", "setting": "[9]", "result": 34, "unit": "µM"},
      {"measurement": "TGI", "setting": "[10]", "result": 42, "unit": "µM"},
      {"measurement": "TGI", "setting": "[11]", "result": "> 100", "unit": "µM"},
      {"measurement": "TGI", "setting": "[12]", "result": 7.18, "unit": "µM"},
      {"measurement": "TGI", "setting": "[13]", "result": 58.2, "unit": "µM"},
      {"measurement": "TGI", "setting": "[14]", "result": 48.8, "unit": "µM"},
      {"measurement": "TGI", "setting": "[15]", "result": 11.5, "unit": "µM"},
      {"measurement": "TGI", "setting": "[16]", "result": 47.4, "unit": "µM"},
      {"measurement": "TGI", "setting": "[17]", "result": 4.62, "unit": "µM"},
      {"measurement": "TGI", "setting": "[18]", "result": 64, "unit": "µM"},
      {"measurement": "TGI", "setting": "[19]", "result": 34.7, "unit": "µM"},
      {"measurement": "TGI", "setting": "[20]", "result": 29.8, "unit": "µM"},
      {"measurement": "TGI", "setting": "[21]", "result": 31.6, "unit": "µM"},
      {"measurement": "TGI", "setting": "[22]", "result": 14.6, "unit": "µM"},
      {"measurement": "TGI", "setting": "[23]", "result": 35.6, "unit": "µM"},
      {"measurement": "TGI", "setting": "[24]", "result": 38.9, "unit": "µM"},
      {"measurement": "TGI", "setting": "[25]", "result": 40.2, "unit": "µM"},
      {"measurement": "TGI", "setting": "[26]", "result": 77.8, "unit": "µM"},
      {"measurement": "TGI", "setting": "[27]", "result": "> 100", "unit": "µM"},
      {"measurement": "TGI", "setting": "[28]", "result": 48.2, "unit": "µM"},
      {"measurement": "TGI", "setting": "[29]", "result": 28.6, "unit": "µM"},
      {"measurement": "TGI", "setting": "[30]", "result": 20.2, "unit": "µM"},
      {"measurement": "TGI", "setting": "[31]", "result": 43.4, "unit": "µM"},
      {"measurement": "TGI", "setting": "[32]", "result": 23.5, "unit": "µM"},
      {"measurement": "TGI", "setting": "[33]", "result": "> 100", "unit": "µM"},
      {"measurement": "TGI", "setting": "[34]", "result": 76.1, "unit": "µM"},
      {"measurement": "TGI", "setting": "[35]", "result": 31, "unit": "µM"},
      {"measurement": "TGI", "setting": "[36]", "result": "> 100", "unit": "µM"},
      {"measurement": "TGI", "setting": "[37]", "result": "> 100", "unit": "µM"},
      {"measurement": "TGI", "setting": "[38]", "result": 19.3, "unit": "µM"},
      {"measurement": "TGI", "setting": "[39]", "result": 29.3, "unit": "µM"},
      {"measurement": "TGI", "setting": "[40]", "result": 20.2, "unit": "µM"},
      {"measurement": "TGI", "setting": "[41]", "result": 18, "unit": "µM"},
      {"measurement": "TGI", "setting": "[42]", "result": "> 100", "unit": "µM"},
      {"measurement": "TGI", "setting": "[43]", "result": 29.2, "unit": "µM"},
      {"measurement": "TGI", "setting": "[44]", "result": 17.7, "unit": "µM"},
      {"measurement": "TGI", "setting": "[45]", "result": 22.5, "unit": "µM"},
      {"measurement": "TGI", "setting": "[46]", "result": 31.3, "unit": "µM"},
      {"measurement": "TGI", "setting": "[47]", "result": 37, "unit": "µM"},
      {"measurement": "TGI", "setting": "[48]", "result": 30.1, "unit": "µM"},
      {"measurement": "TGI", "setting": "[49]", "result": 7.27, "unit": "µM"},
      {"measurement": "TGI", "setting": "[50]", "result": 42.3, "unit": "µM"},
      {"measurement": "TGI", "setting": "[51]", "result": 46.3, "unit": "µM"},
      {"measurement": "TGI", "setting": "[52]", "result": 22.2, "unit": "µM"},
      {"measurement": "TGI", "setting": "[53]", "result": 32.3, "unit": "µM"},
      {"measurement": "TGI", "setting": "[54]", "result": 36.8, "unit": "µM"},
      {"measurement": "TGI", "setting": "[55]", "result": 34.5, "unit": "µM"},
      {"measurement": "TGI", "setting": "[56]", "result": 32.2, "unit": "µM"}
    ]}
  ]
}
